Assay results from patent US10100011B2, “Pentadienoyl piperidine derivative and use thereof” (Industry-Academic Cooperation Foundation, Yonsei University, priority 2014, dated 2018).

System: genes related to lipogenesis and AMPK in liver tissue
Assay: Gene (RT-PCR) and protein (Western blotting) expression in liver tissue of mice
Assay type: in vivo, mouse
Details: compound in high-fat diet, pattern similar to Chow group
Experimental: 1 ml of a TRIzol solution per 0.1 g of epididymal fat tissue was added to the pulverized tissue, followed by centrifuging at 4° C. and 12,000×g for 10 minutes. A supernatant was transferred into a new tube and then 200 μl of chloroform was added thereto, followed by vortexing. This process was repeated twice and then a supernatant was transferred into a new tube. Subsequently, isopropanol and the supernatant were mixed in a ratio of 1:1 and strongly shook ten times, followed by standing at room temperature for 10 minutes. Subsequently, centrifugation was carried out at 12,000×g and 4° C. for 10 minutes, followed by removing a supernatant and adding 1 ml of 70% ethanol to the remaining precipitate. Subsequently, centrifugation was carried out at 7,500×g and 4° C. for five minutes. Ethanol was removed and then the tube containing an RNA precipitate was dried at room temperature for five minutes. […] The concentrations of the extracted RNA samples were measured at wavelengths of 260 nm and 280 nm by means of a UV/VIS spectrophotometer (Beckman Coulter, DU730). […]
A predetermined amount of visceral fat or liver tissue was homogenized with liquid nitrogen and a lysis buffer in a mortar and then centrifuged at 13,000 rpm and 4° C. for 20 minutes. Subsequently, a middle layer was collected and subjected to protein quantification according to the Bradford method. […]

## CSc1ccc(/C=C/C=C/C(=O)N2CCCCC2)cc1 [LJ-2501, (2E,4E)-5-(4-(methylthio)phenyl)-1-(piperine-1-yl)penta-2,4-diene-1-one]
RT-PCR
  HFD-caused increase of expression of downstream genes of AMPK (LXRα, SREBP-1c, LPL, FAS, ACC) in liver tissue: reversed
Western blotting
  HFD-caused reduction of AMPK phosphorylation in liver tissue: reversed
